Assay results from patent US7244724B2, “Pyrrolobenzodiazepines” (United States of America, Represented by the Secretary, …, priority 2003, dated 2007).
pIC50: −log10 of the molar value.

Key:
[1] = tested on: K562 human chronic myeloid leukaemia cells; experiment: K562 assay (MTT cytotoxicity); type: cell-based; conditions: 96 h, 4 days incubation, n=2
Protocol: An initial stock of compound (in 0.006% DMSO) was used to generate a 1:3 dilution series ranging from 600 nM to 30 pM be the sequential addition of 40 μL compound to 80 μL of solvent (0.006% DMSO in sterile H2O). 10 μL of each point of the dilution range was transferred to a 96 well assay plate (Nunc, Cat. No. 163320) to generate four replica points per compound concentration. K562 human chronic myeloid leukaemia cells were maintained in RPM1 1640 medium supplemented with 10% foetal calf serum and 2 mM glutamine at 37° C. in a humidified atmosphere containing 5% CO2. 190 μL of a 5×10^4 cell solution was added to each well of the assay plate using a Matrix Wellmate (Apogent Discoveries), resulting in a total of 9.5×10^3 cells/well. Working compound concentrations therefore ranged from 30 nM to 1.5 pM. Plates were then kept in the dark at 37° C. in a humidified atmosphere containing 5% CO2. The assay is based on the ability of viable cells to reduce a yellow soluble tetrazolium salt, 3-(4,5-dimethylthiazol-2-yl)-2,5-diphenyl-2H-tetrazolium bromide (MTT, Aldrich-Sigma), to an insoluble purple formazan precipitate. […] The optical density was then read at a wavelength of 540 nm on a Fusion plate reader (Perkin Elmer). […]

[2] = Stability in d6-DMSO, d4-MeOH and D2O by 1H NMR (Study 4); type: physicochemical
Protocol: Samples of SJG-720 (˜3 mg) were dissolved in d6-DMSO, D2O and d4-MeOH (Cambridge Isotopes) and transferred to separate NMR tubes (Wilmad, 5 mm). ^1H NMR spectra were obtained on a Bruker Avance 400 MHz NMR spectrophotometer (typically 64 scans). ^13C and DEPT (Distortionless Enhancement through Polarized Transfer) experiments were performed on these samples using the same instrument at the appropriate field strength (100 MHz).
NMR spectra were recorded, as described above, after the following time intervals: • d6-DMSO, 1 hr, 8 days. • D2O, 3 hrs, 8 days. • d4-MeOH, 10 minutes, 3 days. Additional Studies
NMR experiments were carried out on SJG-136 in its carbinolamine forms. […] However, strong signals corresponding to the kinetic and thermodynamic carbinolamine forms can be observed when the sample is analysed in d6-DMSO. These gradually disappear from the spectra over a period of about 24 hours when the imine form becomes the predominant species.
Samples of the bisulphite adduct SJG-720 dissolved in d6-DMSO and D2O were stored at room temperature for over a period of 7 days and then analysed by ^1H NMR spectroscopy. […] In addition, a sample of SJG-720 stored at room temperature in d4-MeOH for over 3 days was also analysed by ^1H NMR.

SMILES | pIC50 [1] | Interconversion of carbinolamine forms to imine ([2]; CDCl3 or CD3CN) | Period over which carbinolamine form signals disappear and the imine form becomes predominant ([2]; carbinolamine forms in d6-DMSO) | Stability in D2O (1H NMR spectrum change) ([2]; D2O, room temperature, over 7 days) | Stability in d4-MeOH (interconversion to carbinolamine methyl ether) ([2]; d4-MeOH, room temperature, over 3 days) | Stability in d6-DMSO (reversion to parent imine) ([2]; d6-DMSO, room temperature, over 7 days)
C=C1C[C@H]2C=Nc3cc(OCCCOc4cc5c(cc4OC)C(=O)N4CC(=C)C[C@H]4C=N5)c(OC)cc3C(=O)N2C1 [SJG-136] | > 8.00 | revert to the imine form immediately | about 24 hours |  |  | 
C=C1C[C@H]2C(S(=O)(=O)[O-])Nc3cc(OCCCOc4cc5c(cc4OC)C(=O)N4CC(=C)C[C@H]4C(S(=O)(=O)[O-])N5)c(OC)cc3C(=O)N2C1.[Na+].[Na+] (stereo partly drawn) [SJG-720, 1,1′[[(Propane-1,3-diyl)dioxy]bis(11aS)-11-sulpho-7-methoxy-2-methylidene-1,2,3,10,11,11a-hexahydro-5H-pyrrolo[2,1-c][1,4-benzodiazepin-5-one]] sodium salt] |  |  |  | no appreciable hydrolysis had occurred | interconversion to the carbinolamine methyl ether from was not observed | complete absence of parent imine SJG-136 signals
